The text below walks through data of patent US6369088B2, “Substituted 3-phenyl-5-alkoxy-1,3,4-oxadiazol-2-ones, their preparation and their use as pharmaceuticals” (Aventis Pharma Deutschland GmbH, priority 2000, dated 2002).

A word on the melting point: it is the temperature, or range, at which the solid turns liquid. `COc1nn(-c2ccc([N+](=O)[O-])c(F)c2)c(=O)o1` came in with a melting point of 127 °C.
`COc1nn(-c2ccc(NC(=O)Oc3ccccc3)c(C)c2)c(=O)o1` yielded a melting point of 145 °C.
Next, `COc1nn(-c2ccc([N+](=O)[O-])c(C)c2)c(=O)o1` [Example 20, 5-Methoxy-3-(3-methyl-4-nitrophenyl)-3H-(1,3,4)oxadiazol-2-one]: 112 °C.
`COc1nn(-c2ccc([N+](=O)[O-])cc2C)c(=O)o1` [Example 23, 5-Methoxy-3-(2-methyl-4-nitrophenyl)-3H-(1,3,4)oxadiazol-2-one] displayed a melting point of 111 °C.
Compound `COc1nn(-c2ccc([N+](=O)[O-])c(OCc3ccc(F)cc3)c2)c(=O)o1` [Example 24, 5-Methoxy-3-(3-(4-fluorobenzyloxy)-4-nitrophenyl)-3H-(1,3,4)oxadiazol-2-one] came in with a melting point of 137 °C.
Regarding `COc1nn(-c2ccc(Oc3ccc(Cl)cc3)c(N)c2)c(=O)o1` [Example 27, 5-Methoxy-3-(3-amino-4-(4-chlorophenoxy)phenyl)-3H-(1,3,4)oxadiazol-2-one], the melting point was found to be 133 °C.
Next, `COc1nn(-c2ccc(N)c(OCc3ccc(F)cc3)c2)c(=O)o1` [Example 29, 5-Methoxy-3-(4-amino-3-(4-fluorobenzyloxy)phenyl)-3H-(1,3,4)oxadiazol-2-one]: 195 °C.
Under `COc1nn(-c2ccc(NC(=O)Cc3ccc(Cl)cc3)c(C)c2)c(=O)o1` [Example 31, 5-Methoxy-3-(4-(4-chlorophenylacetylamino)-3-methylphenyl)-3H-(1,3,4)oxadiazol-2-one] stands 190 °C; under `COc1nn(-c2ccc(NC(=O)CCCCl)c(C)c2)c(=O)o1` [Example 35, 5-Methoxy-3-(4-(4-chlorobutanoylamino)-3-methylphenyl)-3H-(1,3,4)oxadiazol-2-one], 137 °C.
Turning to `COc1nn(-c2ccc(NC(=O)C(C)(C)C)c(C)c2)c(=O)o1` [Example 36, 5-Methoxy-3-(4-pivaloylamino-3-methylphenyl)-3H-(1,3,4)oxadiazol-2-one], the melting point stood at 157 °C.
Next, `COc1nn(-c2ccc(NS(=O)(=O)CC(F)(F)F)c(C)c2)c(=O)o1` [Example 40, 5-Methoxy-3-(4-(2,2,2-trifluoroethylsulfonylamino)-3-methylphenyl)-3H-(1,3,4)oxadiazol-2-one]: 151 °C.
For `COc1nn(-c2ccc(NS(=O)(=O)c3ccc(Cl)cc3)cc2)c(=O)o1` [Example 43, 5-Methoxy-3-(4-(4-chlorophenylsulfonylamino)phenyl)-3H-(1,3,4)oxadiazol-2-one], the melting point came out at 169 °C.
Under `COc1nn(-c2ccc(NS(=O)(=O)c3ccccc3Cl)cc2)c(=O)o1` [Example 44, 5-Methoxy-3-(4-(2-chlorophenylsulfonylamino)phenyl)-3H-(1,3,4)oxadiazol-2-one] stands 171 °C; under `COc1nn(-c2ccc(NS(=O)(=O)c3cccc(Cl)c3)cc2)c(=O)o1` [Example 45, 5-Methoxy-3-(4-(3-chlorophenylsulfonylamino)phenyl)-3H-(1,3,4)oxadiazol-2-one], 141 °C; under `COc1nn(-c2ccc(NC(=O)Cc3ccc(Cl)cc3)c(OCc3ccc(F)cc3)c2)c(=O)o1` [Example 46, 5-Methoxy-3-(4-(4-chlorophenylacetylamino)-3-(4-fluorobenzyloxy)phenyl)-3H-(1,3,4)oxadiazol-2-one], 167 °C.
`COc1nn(-c2ccc(NS(=O)(=O)Cc3ccccc3)cc2)c(=O)o1` [Example 47, 5-Methoxy-3-(4-benzylsulfonylaminophenyl)-3H-(1,3,4)oxadiazol-2-one] came in with a melting point of 153 °C.
Next, `COc1nn(-c2ccc(NS(=O)(=O)C(C)C)cc2)c(=O)o1` [Example 49, 5-Methoxy-3-(4-isopropylsulfonylaminophenyl)-3H-(1,3,4)oxadiazol-2-one]: 190 °C.
Next, `COc1nn(-c2ccc(N(C)C)c(C)c2)c(=O)o1` [Example 50, 5-Methoxy-3-(4-dimethylamino-3-methylphenyl)-3H-(1,3,4)oxad iazol-2-one]: 71 °C.
In turn, `CNc1ccc(-n2nc(OC)oc2=O)cc1OCc1ccc(F)cc1` [Example 55, 5-Methoxy-3-(3-(4-fluorobenzyloxy)-4-methylaminophenyl)-3H-(1,3,4)oxadiazol-2-one] had a melting point of 98 °C.
Under `COc1nn(-c2cccc(N)c2)c(=O)o1` [Example 56, 5-Methoxy-3-(3-aminophenyl)-3H-(1,3,4)oxadiazol-2-one] stands 95 °C; under `COc1nn(-c2cccc(N(Cc3ccccc3)Cc3ccccc3)c2)c(=O)o1` [Example 57, 5-Methoxy-3-(3-dibenzylaminophenyl)-3H-(1,3,4)oxadiazol-2-one], 71 °C; under `COc1nn(-c2ccc(NC(=O)Nc3ccccn3)cc2)c(=O)o1` [Example 59, 5-Methoxy-3-(4-(pyrid-2-yl)aminocarbonylaminophenyl)-3H-(1,3,4)oxadiazol-2-one], 81 °C.
Consider `COc1nn(-c2ccc(N)cc2Cl)c(=O)o1` [Example 63, 5-Methoxy-3-(4-amino-2-chlorophenyl)-3H-(1,3,4)oxadiazol-2-one], for which the melting point is 126 °C.
The compound `COc1nn(-c2ccc([N+](=O)[O-])cc2Cl)c(=O)o1` [Example 64, 5-Methoxy-3-(2-chloro-4-nitrophenyl)-3H-(1,3,4)oxadiazol-2-one] displayed a melting point of 92 °C.
`COc1nn(-c2ccc(NC(=O)c3ccc(OC(F)(F)F)cc3)cc2C)c(=O)o1` [Example 66, 5-Methoxy-3-(2-methyl-4-(4-trifluoromethoxybenzoylamino)phenyl)-3H-(1,3,4)oxadiazol-2-one]: the melting point is 150 °C.
Under `COc1nn(-c2ccc(NC(=O)OCc3ccccc3)cc2Cl)c(=O)o1` [Example 67, 5-Methoxy-3-(2-chloro-4-benzyloxycarbonylaminophenyl)-3H-(1,3,4)oxadiazol-2-one] stands 150 °C; under `COc1nn(-c2ccc(NC(=O)OCc3ccc(Cl)cc3)cc2)c(=O)o1` [Example 70, 5-Methoxy-3-(4-(4-chlorobenzyloxycarbonylamino)phenyl)-3H-(1,3,4)oxadiazol-2-one], 177 °C; under `COc1nn(-c2ccc(NC(=O)c3ccc(Cl)c(Cl)c3)cc2)c(=O)o1` [Example 72, 5-Methoxy-3-(4-(3,4-dichlorobenzoylamino)phenyl)-3H-(1,3,4)oxadiazol-2-one], 200 °C.
Regarding `COc1nn(-c2ccc(NC(=O)C(C)(C)Oc3ccc(Cl)cc3)cc2)c(=O)o1` [Example 73, 5-Methoxy-3-(4-(2-(4-chlorophenoxy)-2-methylpropionylamino)phenyl)-3H-(1,3,4)oxadiazol-2-one], the melting point amounted to 153 °C.
Next, `Cc1cc(-n2nc(OC(C)C)oc2=O)ccc1NC(=O)OCc1ccccc1` [Example 75, 5-isopropoxy-3-(3-methyl-4-benzyloxycarbonylaminophenyl)-3H-(1,3,4)oxadiazol-2-one]: 119 °C; `CCCCOC(=O)Nc1ccc(-n2nc(OC(C)C)oc2=O)cc1C` [Example 76, 5-isopropoxy-3-(3-methyl-4-butyloxycarbonylaminophenyl)-3H-(1,3,4)oxadiazol-2-one]: 114 °C.
Next, `Cc1cc(-n2nc(OC(C)C)oc2=O)ccc1NC(=O)Nc1cccc(Cl)c1` [Example 77, 5-isopropoxy-3-(3-methyl-4-(3-chlorophenylaminocarbonylamino)phenyl)-3H-(1,3,4)oxadiazol-2-one]: 201 °C; `Cc1cc(-n2nc(OC(C)(C)C)oc2=O)ccc1NC(=O)OCc1ccccc1` [Example 78, 5-tert-Butoxy-3-(3-methyl-4-benzyloxycarbonylaminophenyl)-3H-(1,3,4)oxadiazol-2-one]: 113 °C.
`COc1nn(-c2ccc(NC(=O)NC3Cc4ccccc4C3)c(C)c2)c(=O)o1` [Example 81, 5-Methoxy-3-(3-methyl-4-(indan-2-ylaminocarbonylamino)phenyl)-3H-(1,3,4)oxadiazol-2-one] returned a melting point of 206 °C.
`COc1nn(-c2ccc(NC(=O)NCc3cccnc3)c(C)c2)c(=O)o1` [Example 82, 5-Methoxy-3-(3-methyl-4-(pyrid-3-ylmethylaminocarbonylamino)phenyl)-3H-(1,3, 4)oxadiazol-2-one] yielded a melting point of 229 °C.
Under `COc1nn(-c2ccc(NC(=O)OCc3cccnc3)c(C)c2)c(=O)o1` [Example 83, 5-Methoxy-3-(3-methyl-4-(pyrid-3-ylmethoxycarbonylamino)phenyl)-3H-(1,3,4)oxadiazol-2-one] stands 232 °C; under `COc1nn(-c2ccc(NC(=O)c3ccc(C(F)(F)F)cc3)c(OCc3ccccc3)c2)c(=O)o1` [Example 86, 5-Methoxy-3-(3-benzyloxy-4-(4-trifluoromethylbenzoylamino)phenyl)-3H-(1,3,4)oxadiazol-2-one], 159 °C; under `COc1nn(-c2ccc(NC(=O)c3ccc(C(C)(C)C)cc3)c(F)c2)c(=O)o1` [Example 87, 5-Methoxy-3-(3-fluoro-4-(4-tert-butylbenzoylamino)phenyl)-3H-(1,3,4)oxadiazol-2-one], 144 °C.
Next, `COc1nn(-c2ccc(NC(=O)OCC(F)(F)F)c(C)c2)c(=O)o1` [Example 88, 5-Methoxy-3-(3-methyl-4-(2,2,2-trifluoroethoxycarbonylamino)phenyl)-3H-(1,3, 4)oxadiazol-2-one]: 141 °C.
In turn, `COc1nn(-c2ccc(NC(=O)N3CCCCC3)c(C)c2)c(=O)o1` [Example 89, 5-Methoxy-3-(3-methyl-4-piperidinocarbonylaminophenyl)-3H-(1,3,4)oxadiazol-2-one] registered a melting point of 154 °C.
Under `COc1ccc2cc(C(=O)Nc3ccc(-n4nc(OC)oc4=O)cc3)oc2c1` [Example 90, 5-Methoxy-3-(4-(6-methoxybenzofuran-2-yl-carbonylamino)phenyl)-3H-(1,3,4)oxadiazol-2-one] stands 191 °C.
